The record followed here is patent US20190135755A1, “CRYSTAL POLYMORPHISM OF KCNQ2-5 CHANNEL ACTIVATOR” (ONO PHARMACEUTICAL CO., LTD., priority 2016, published 2019).

Data set [1] in a line: Chemical stability test of crystal form under storage conditions. The class given is physicochemical. Particulars: all storage conditions, compared with the sample. How it is done:
The stability of the crystal form of the present invention was examined under various storage conditions. After storage, the residual ratio (%) of each of the samples stored under the respective conditions with respect to the area percentage of the sample stored at −20° C. was calculated by HPLC. Further, by using a powder X-ray diffraction spectrum, peaks were compared with those of the sample. The appearance was observed by visual inspection and compared with that of the sample.
<Storage Conditions and Sampling Time>
25° C.-60% RH (opened): 3 months
40° C.-75% RH (opened): 3 months
2500 Lux: 20D (shading, transparent)

Data set [2] deals with T1, Human KCNQ2/3 (Homo sapiens, UniProt O43525+O43526).
T1 construct: expressed in transfected cells; host or cells: CHO-DHFR- cells
The data set can be described thus: Opening action with respect to KCNQ2/3 channel by depolarization stimulation (thallium influx, FLIPR). The class given is cell-based. Particulars: human KCNQ2/3 expressing CHO-DHFR- cells; concentration giving 50% of maximum reaction of retigabine (10 μM); 5 mM potassium and 0.5 mM thallium; read-out: opening action (ECrtg50 value) with respect to the KCNQ2/3 channel. How it is done: Human KCNQ2/3 expression cells (CHO-DHFR-cells) were seeded in each well of a 384-well plate (collagen-coated, black, clear bottom) at 0.5×10^4 cells/50 μL per well and cultured in a MEM ALPHA medium (containing 10 vol % inactivated (56° C., 30 min) fetal bovine serum, 100 IU/mL penicillin, 100 μg/mL streptomycin, and 2 mM L-glutamine) at 37° C. in 5% CO2 for 18 to 24 hours. After the medium in the plate was removed, incubation (room temperature, 60 minutes, shading) was performed in a loading buffer (prepared by the method described in the manual of FluxOR Thallium Detection Kit (Invitrogen, F10016, F10017)). A KCNQ2/3 channel opening action (thallium influx into cells) by depolarization stimulation (5 mM potassium and 0.5 mM thallium) was measured by FLIPR TETRA (Molecular Devices). The compound I was treated 5 minutes before the depolarization stimulation, and the reaction induced by the depolarization stimulation was measured over time for 180 seconds. The channel opening action of the compound I was evaluated based on the change amount of the fluorescence intensity from the time before the depolarization stimulation to the time after the elapse of 180 seconds, and the concentration (ECrtg50) satisfying 50% of the fluorescence intensity change of a maximum reaction (in the treatment at 10 μM) of retigabine under the conditions of this experiment was calculated.

A short description of data set [3]: Solubility test. The class given is physicochemical. Particulars: aqueous buffer, kinetic from dmso stock, Japanese Pharmacopoeia dissolution test second solution (pH 6.8), room temperature, quantification range 5 to 100 μM. How it is done:
A calibration curve solution was prepared at 0.1, 0.4, and 2 μM by diluting a test substance (a 10 mM DMSO solution) with acetonitrile and adding acetonitrile containing an internal standard substance (candesartan).
A sample solution was prepared as follows. 5 μL of the compound I (a 10 mM DMSO solution) was added to 495 μL of the Japanese Pharmacopoeia dissolution test second solution (pH: 6.8), followed by stirring at room temperature for 5 hours. Then, the solution was transferred to a solubility filter plate and subjected to suction filtration. The filtrate (20 μL) was diluted with acetonitrile, followed by adding acetonitrile containing an internal standard substance (candesartan).
Each of the calibration curve and sample solutions (5 μL) was injected into LC-MS/MS (Discovery Max, manufactured by Thermo Scientific, Inc.) and subjected to quantification (quantification range: 5 to 100 μM). The solubility in the case where the value equal to or less than the quantification range was obtained was defined as <5 μM, and the solubility in the case where the value equal to or more than the quantification range was obtained was defined as […].

Data set [4] is described as follows: Water vapor adsorption/desorption isotherm measurement. Particulars: 25° C., relative humidity of 50% RH or more, based on mass when dried (0% RH). The class given is physicochemical. How it is done:
(3) Water Vapor Adsorption/Desorption Isotherm Measurement
Device: DVS Intrinsic, manufactured by SMS Co., Ltd.
Change in relative humidity: 0% to 95% (5% STEP)
STEP transition criterion: percent change in weight: 0.002%/min
A change in mass when the humidity was changed in a stepwise manner (relative humidity: from 0% RH to 95% RH) at 25° C. was recorded over time, and an equilibrium mass at each humidity was determined. Subsequently, based on the mass when dried (0% RH), the percent change in mass at each humidity and the hydration number were determined.

In data set [5] the test system is bladder extracted from rat. As to the kind of experiment: Relaxing action on bladder extracted from rat (Magnus test, carbachol contraction). Conditions: concentration at which percent change in tension is −20%; carbachol 1 μM contraction; female Wistar rat bladder strip. As for the experimental part:
Female Jcl:Wistar rats (CLEA Japan, Inc., body weight at use: 170 to 200 g) were anesthetized by intraperitoneal administration of about 40 mg/kg of pentobarbital (Somnopentyl, Schering Plough Animal Health Corporation), and killed by bloodletting. The bladder was extracted by abdominal incision and immediately thereafter immersed in ice-cooled Krebs buffer (Krebs Ringer bicarbonate buffer (Sigma-Aldlich Co. LLC) supplemented with sodium hydrogen carbonate (final concentration: 15 mM) and calcium chloride (final concentration: 2.5 mM)) saturated with a mixed gas (95% O2, 5% CO2).
The bladder body extracted from each rat was cut into an oblong strip shape (about 10×3 mm), whereby a specimen was prepared on ice. Immediately thereafter, the specimen was suspended in a Magnus tube filled with Krebs buffer (37° C.) bubbled with the mixed gas while applying a tension load of 500 mg thereto. Incidentally, the specimen was prepared within 24 hours after extracting the tissue. […]
The tension (mg) in the extracted bladder was used as an evaluation item. The tension was read using analysis software WAVE THERMO 1000. […] The percent change in tension (%) is calculated according to the following formula. […]
The value at which the percent change in tension (%) was −20% was calculated as IC20 and used as an index of the relaxing action on the extracted bladder.

The target of data set [6] is T2, hERG channel (Homo sapiens, UniProt Q12809).
T2 construct: expressed in transfected cells; host or cells: HEK293 cells
The data set can be described thus: Evaluation of action on hERG IKr current (patch-clamp). The class given is cell-based. Conditions: HEK293 cells overexpressing hERG, maximum tail current, 10 minutes after application, read-out: 50% hERG channel inhibitory activity. How it is done: By using HEK293 cells overexpressing a human ether-a-go-go-related gene (hERG), the maximum tail current of the hERG IKr current induced by redepolarization pulse subsequent to depolarization pulse was measured by a patch-clamp method. The percent change (suppression rate) after 10 minutes from application of a test substance with respect to the maximum tail current before the application of the test substance was calculated (see, Biophysical Journal, vol. 74, pp. 230-241 (1998)).
Background: Block of hERG is tested as a sign of cardiac risk.

A short description of data set [7]: Evaluation of stability in human liver microsomes. The class given is in vitro ADME. Conditions: 0.5 mg/mL human liver microsomes, NADPH, 37° C., 15 minutes, 5 μmol/L. How it is done:
A test compound (a 10 mmol/L DMSO solution, 5 μL) was diluted with a 50% aqueous acetonitrile solution (195 μL), whereby a 0.25 mmol/L solution was prepared.
To a reaction vessel preheated to 37° C., 0.5 mg/mL of human liver microsomes (XenoTech, LLC) and 245 μL of a 0.1 M phosphate buffer solution (pH 7.4) containing NADPH co-factor (BD Biosciences) were added, followed by preincubation for 5 minutes, and thereafter, the above-prepared test compound solution (5 μL) was added thereto to start a reaction (final concentration: 5 μmol/L). Immediately after the start, a 20 μL portion was collected and added to 180 μL of acetonitrile containing an internal standard substance (warfarin) to stop the reaction. A 20 μL portion of this solution was stirred with 180 μL of a 50% aqueous acetonitrile solution on a plate equipped with a deproteinization filter, followed by suction filtration, and the filtrate was used as a standard sample.
After the above-prepared reaction solution was incubated at 37° C. for 15 minutes, a 20 μL portion of the solution was added to 180 μL of cooled acetonitrile (containing warfarin serving as an internal standard substance) to stop the reaction. […]
A residual ratio (%) was calculated as follows. […]

As usually defined, the solubility is how much of the substance goes into solution per volume. A low value points to a poorly soluble substance. As a reminder, the IC20 is the point of the concentration-response curve where the effect stands at 20%. A lower IC20 goes with an effect from little substance.

In brackets after ≈: the same amount, converted by molar mass. Where only a bound is given, the exact number is not on record here.

T1 sequence (O43526 whole entry): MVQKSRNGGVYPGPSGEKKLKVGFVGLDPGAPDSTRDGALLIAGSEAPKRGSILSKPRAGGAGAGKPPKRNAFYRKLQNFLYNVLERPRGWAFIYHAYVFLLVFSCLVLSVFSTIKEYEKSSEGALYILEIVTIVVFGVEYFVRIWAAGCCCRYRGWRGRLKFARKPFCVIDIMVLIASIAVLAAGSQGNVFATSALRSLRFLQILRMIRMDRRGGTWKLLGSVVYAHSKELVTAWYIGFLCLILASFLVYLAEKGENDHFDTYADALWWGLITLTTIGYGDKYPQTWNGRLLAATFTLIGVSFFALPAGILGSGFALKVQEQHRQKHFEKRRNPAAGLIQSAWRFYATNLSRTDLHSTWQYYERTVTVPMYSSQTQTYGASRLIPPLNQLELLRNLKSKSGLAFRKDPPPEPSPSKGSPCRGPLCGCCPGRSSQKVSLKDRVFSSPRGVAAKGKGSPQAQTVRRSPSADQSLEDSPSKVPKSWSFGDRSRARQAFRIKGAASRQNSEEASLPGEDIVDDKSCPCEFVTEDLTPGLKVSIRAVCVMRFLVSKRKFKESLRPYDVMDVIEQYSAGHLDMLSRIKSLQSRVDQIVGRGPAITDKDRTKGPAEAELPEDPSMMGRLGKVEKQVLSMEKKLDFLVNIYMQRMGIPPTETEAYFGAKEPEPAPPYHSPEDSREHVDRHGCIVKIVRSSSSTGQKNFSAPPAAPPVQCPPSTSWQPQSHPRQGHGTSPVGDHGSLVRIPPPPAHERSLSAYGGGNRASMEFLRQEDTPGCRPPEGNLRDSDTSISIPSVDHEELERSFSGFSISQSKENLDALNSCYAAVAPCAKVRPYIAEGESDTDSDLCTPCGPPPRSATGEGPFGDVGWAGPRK
T1 sequence (O43525 whole entry): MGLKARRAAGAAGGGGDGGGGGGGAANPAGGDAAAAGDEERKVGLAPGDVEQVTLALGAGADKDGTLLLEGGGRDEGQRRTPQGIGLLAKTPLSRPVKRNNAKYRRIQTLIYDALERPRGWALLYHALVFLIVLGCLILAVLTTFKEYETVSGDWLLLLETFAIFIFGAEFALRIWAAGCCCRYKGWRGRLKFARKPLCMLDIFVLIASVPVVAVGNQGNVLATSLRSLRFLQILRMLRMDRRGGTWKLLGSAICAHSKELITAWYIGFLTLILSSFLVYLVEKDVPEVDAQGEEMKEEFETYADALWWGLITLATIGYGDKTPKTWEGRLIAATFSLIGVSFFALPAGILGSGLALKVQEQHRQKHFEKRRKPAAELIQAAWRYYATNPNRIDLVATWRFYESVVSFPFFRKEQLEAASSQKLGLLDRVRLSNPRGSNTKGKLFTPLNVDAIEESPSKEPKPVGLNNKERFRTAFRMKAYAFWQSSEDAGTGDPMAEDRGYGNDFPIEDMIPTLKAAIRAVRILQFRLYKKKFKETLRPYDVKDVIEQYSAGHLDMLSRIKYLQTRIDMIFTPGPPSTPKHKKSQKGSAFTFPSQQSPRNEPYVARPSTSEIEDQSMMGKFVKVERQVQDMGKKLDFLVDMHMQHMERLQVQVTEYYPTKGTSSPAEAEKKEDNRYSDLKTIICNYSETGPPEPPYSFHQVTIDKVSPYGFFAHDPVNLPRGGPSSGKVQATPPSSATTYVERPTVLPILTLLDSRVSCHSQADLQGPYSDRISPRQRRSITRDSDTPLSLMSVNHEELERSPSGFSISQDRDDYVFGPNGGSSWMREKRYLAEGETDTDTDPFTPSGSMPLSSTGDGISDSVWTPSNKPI
T2 sequence (Q12809 whole entry): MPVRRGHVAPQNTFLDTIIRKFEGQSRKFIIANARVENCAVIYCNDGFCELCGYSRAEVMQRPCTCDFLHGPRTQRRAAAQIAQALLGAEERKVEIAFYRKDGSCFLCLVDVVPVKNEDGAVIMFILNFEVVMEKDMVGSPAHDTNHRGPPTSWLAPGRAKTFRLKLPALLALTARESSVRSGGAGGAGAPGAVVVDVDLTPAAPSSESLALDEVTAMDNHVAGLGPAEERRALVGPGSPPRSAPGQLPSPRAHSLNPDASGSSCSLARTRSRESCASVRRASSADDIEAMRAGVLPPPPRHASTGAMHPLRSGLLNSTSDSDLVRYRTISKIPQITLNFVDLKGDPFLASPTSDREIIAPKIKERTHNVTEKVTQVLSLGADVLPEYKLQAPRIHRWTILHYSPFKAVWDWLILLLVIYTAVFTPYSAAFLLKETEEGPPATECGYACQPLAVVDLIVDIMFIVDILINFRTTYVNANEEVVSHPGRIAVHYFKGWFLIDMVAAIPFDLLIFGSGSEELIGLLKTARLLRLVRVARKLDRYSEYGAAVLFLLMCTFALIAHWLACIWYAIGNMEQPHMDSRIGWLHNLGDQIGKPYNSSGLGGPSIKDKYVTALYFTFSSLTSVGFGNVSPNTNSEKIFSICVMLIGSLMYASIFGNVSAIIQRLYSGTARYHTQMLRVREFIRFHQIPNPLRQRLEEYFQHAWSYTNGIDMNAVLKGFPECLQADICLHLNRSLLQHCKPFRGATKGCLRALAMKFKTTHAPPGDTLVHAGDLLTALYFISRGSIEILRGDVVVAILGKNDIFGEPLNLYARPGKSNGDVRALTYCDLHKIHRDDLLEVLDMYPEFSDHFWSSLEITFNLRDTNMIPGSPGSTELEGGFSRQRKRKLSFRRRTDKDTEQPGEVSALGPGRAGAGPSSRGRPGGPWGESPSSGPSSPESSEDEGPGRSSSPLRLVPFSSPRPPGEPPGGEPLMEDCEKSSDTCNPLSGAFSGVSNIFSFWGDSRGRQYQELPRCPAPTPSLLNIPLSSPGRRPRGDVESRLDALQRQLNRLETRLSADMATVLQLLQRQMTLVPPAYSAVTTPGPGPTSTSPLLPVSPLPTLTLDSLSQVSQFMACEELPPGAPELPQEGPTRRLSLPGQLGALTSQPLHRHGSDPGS

Take `C[C@](O)(c1cc(Cl)c(NC(=O)NCc2ccc(Cl)cn2)c(Cl)c1)C(F)(F)F` [A crystal, A crystal of 1-[(5-chloro-2-pyridinyl)methyl]-3-{2,6-dichloro-4-[(2S)-1,1,1-trifluoro-2-hydroxy-2-propanyl]phenyl}urea]: in data set [1], the “appearance after storage (visual inspection)” value is “a change in appearance was not observed” and the “powder X-ray diffraction spectrum after storage” value is on record as “an increase in the number of peaks was not observed”.
As to `CC(O)(c1ccc(NC(=O)NCc2ccc(C(F)(F)F)cn2)cc1)C(F)(F)F` (centres unmarked) [Comparative Example 1, 1-[4-(1,1,1-trifluoro-2-hydroxy-2-propanyl)phenyl]-3-{[5-(trifluoromethyl)-2-pyridinyl]methyl}urea], the EC50 in data set [2] was above 10000 nM.
For the compound `O=C(Cc1ccc(F)cc1)Nc1c(Cl)cc(Cl)cc1Br` [Comparative Example 2, N-(2-bromo-4,6-dichlorophenyl)-2-(4-fluorophenyl)acetamide, reference compound], in data set [3], the solubility at 5 h is below 5 µM. Further, the EC50 in data set [2] came out at 200 nM.
For the compound `C[C@](O)(c1cc(Cl)c(NC(=O)NCc2ccc(Cl)cn2)c(Cl)c1)C(F)(F)F.O` [H crystal, Crystal of hydrate (H crystal) of 1-[(5-chloro-2-pyridinyl)methyl]-3-{2,6-dichloro-4-[(2S)-1,1,1-trifluoro-2-hydroxy-2-propanyl]phenyl}urea], the “percent change in mass” value in data set [4] was determined as 4%.
In turn, `C[C@](O)(c1cc(Cl)c(NC(=O)NCc2ccc(Cl)cn2)c(Cl)c1)C(F)(F)F` [compound I, 1-[(5-chloro-2-pyridinyl)methyl]-3-{2,6-dichloro-4-[(2S)-1,1,1-trifluoro-2-hydroxy-2-propanyl]phenyl}urea] gave a solubility at 5 h in data set [3] of 98 µM (≈ 43.4 µg/mL). The compound also had an IC20 in data set [5] of 500 nM. Further, the EC50 in data set [2] is 600 nM. The IC50 in data set [6] was above 10000 nM. In addition, in data set [7], the “residual ratio (stability against human liver microsomes)” value amounted to 87%.
